# Experimental data taken from the NIST ThermoML archive (doi:10.1021/je900732r).
# Numbers after ± are expanded uncertainties.
# Experiment: mn = molality of the nth substance listed, in mol/kg
# Conditions: 101 kPa, Liquid; for speed of sound: Pulse-echo method
compound,measurement,setting,value
[Ni+2].[O-][Cl+3]([O-])([O-])[O-].[O-][Cl+3]([O-])([O-])[O-] [nickel perchlorate] + CO,mass density,"283.15 K, m1 = 0.04976",810.894 ± 0.47 kg/m3
same,mass density,"283.15 K, m1 = 0.06138",813.322 ± 0.47 kg/m3
same,mass density,"283.15 K, m1 = 0.07317",815.812 ± 0.46 kg/m3
same,mass density,"283.15 K, m1 = 0.08448",818.152 ± 0.46 kg/m3
same,mass density,"283.15 K, m1 = 0.09669",820.699 ± 0.46 kg/m3
same,mass density,"283.15 K, m1 = 0.1085",823.23 ± 0.46 kg/m3
same,mass density,"283.15 K, m1 = 0.1208",825.801 ± 0.45 kg/m3
same,mass density,"283.15 K, m1 = 0.1447",830.859 ± 0.45 kg/m3
same,mass density,"283.15 K, m1 = 0.1676",835.774 ± 0.44 kg/m3
same,mass density,"283.15 K, m1 = 0.1901",840.657 ± 0.44 kg/m3
same,mass density,"283.15 K, m1 = 0.2123",845.469 ± 0.43 kg/m3
same,mass density,"283.15 K, m1 = 0.2356",850.636 ± 0.43 kg/m3
same,mass density,"288.15 K, m1 = 0.04976",806.238 ± 0.48 kg/m3
same,mass density,"288.15 K, m1 = 0.06138",808.669 ± 0.47 kg/m3
same,mass density,"288.15 K, m1 = 0.07317",811.165 ± 0.47 kg/m3
same,mass density,"288.15 K, m1 = 0.08448",813.508 ± 0.47 kg/m3
same,mass density,"288.15 K, m1 = 0.09669",816.056 ± 0.47 kg/m3
same,mass density,"288.15 K, m1 = 0.1085",818.592 ± 0.46 kg/m3
same,mass density,"288.15 K, m1 = 0.1208",821.168 ± 0.46 kg/m3
same,mass density,"288.15 K, m1 = 0.1447",826.231 ± 0.45 kg/m3
same,mass density,"288.15 K, m1 = 0.1676",831.151 ± 0.45 kg/m3
same,mass density,"288.15 K, m1 = 0.1901",836.042 ± 0.44 kg/m3
same,mass density,"288.15 K, m1 = 0.2123",840.858 ± 0.44 kg/m3
same,mass density,"288.15 K, m1 = 0.2356",846.033 ± 0.43 kg/m3
same,mass density,"293.15 K, m1 = 0.04976",801.564 ± 0.48 kg/m3
same,mass density,"293.15 K, m1 = 0.06138",804 ± 0.48 kg/m3
same,mass density,"293.15 K, m1 = 0.07317",806.497 ± 0.48 kg/m3
same,mass density,"293.15 K, m1 = 0.08448",808.845 ± 0.47 kg/m3
same,mass density,"293.15 K, m1 = 0.09669",811.401 ± 0.47 kg/m3
same,mass density,"293.15 K, m1 = 0.1085",813.937 ± 0.47 kg/m3
same,mass density,"293.15 K, m1 = 0.1208",816.518 ± 0.47 kg/m3
same,mass density,"293.15 K, m1 = 0.1447",821.586 ± 0.46 kg/m3
same,mass density,"293.15 K, m1 = 0.1676",826.515 ± 0.45 kg/m3
same,mass density,"293.15 K, m1 = 0.1901",831.412 ± 0.45 kg/m3
same,mass density,"293.15 K, m1 = 0.2123",836.233 ± 0.44 kg/m3
same,mass density,"293.15 K, m1 = 0.2356",841.413 ± 0.44 kg/m3
same,speed of sound,"298.15 K, m1 = 0.04976",1108.7 ± 0.6 m/s
same,speed of sound,"298.15 K, m1 = 0.06138",1110.3 ± 0.6 m/s
same,speed of sound,"298.15 K, m1 = 0.07317",1111.9 ± 0.6 m/s
same,speed of sound,"298.15 K, m1 = 0.08448",1113.4 ± 0.6 m/s
same,speed of sound,"298.15 K, m1 = 0.09669",1115.2 ± 0.61 m/s
same,speed of sound,"298.15 K, m1 = 0.1085",1116.7 ± 0.61 m/s
same,speed of sound,"298.15 K, m1 = 0.1208",1118.3 ± 0.61 m/s
same,speed of sound,"298.15 K, m1 = 0.1447",1121.7 ± 0.62 m/s
same,speed of sound,"298.15 K, m1 = 0.1676",1124.8 ± 0.62 m/s
same,speed of sound,"298.15 K, m1 = 0.1901",1127.8 ± 0.62 m/s
same,speed of sound,"298.15 K, m1 = 0.2123",1130.6 ± 0.63 m/s
same,speed of sound,"298.15 K, m1 = 0.2356",1134.2 ± 0.63 m/s
same,mass density,"298.15 K, m1 = 0.04976",796.875 ± 0.49 kg/m3
same,mass density,"298.15 K, m1 = 0.06138",799.318 ± 0.49 kg/m3
same,mass density,"298.15 K, m1 = 0.07317",801.821 ± 0.48 kg/m3
same,mass density,"298.15 K, m1 = 0.08448",804.169 ± 0.48 kg/m3
same,mass density,"298.15 K, m1 = 0.09669",806.731 ± 0.48 kg/m3
same,mass density,"298.15 K, m1 = 0.1085",809.271 ± 0.47 kg/m3
same,mass density,"298.15 K, m1 = 0.1208",811.856 ± 0.47 kg/m3
same,mass density,"298.15 K, m1 = 0.1447",816.93 ± 0.47 kg/m3
same,mass density,"298.15 K, m1 = 0.1676",821.865 ± 0.46 kg/m3
same,mass density,"298.15 K, m1 = 0.1901",826.771 ± 0.46 kg/m3
same,mass density,"298.15 K, m1 = 0.2123",831.599 ± 0.45 kg/m3
same,mass density,"298.15 K, m1 = 0.2356",836.783 ± 0.45 kg/m3
same,mass density,"303.15 K, m1 = 0.04976",792.174 ± 0.5 kg/m3
same,mass density,"303.15 K, m1 = 0.06138",794.619 ± 0.49 kg/m3
same,mass density,"303.15 K, m1 = 0.07317",797.126 ± 0.49 kg/m3
same,mass density,"303.15 K, m1 = 0.08448",799.474 ± 0.49 kg/m3
same,mass density,"303.15 K, m1 = 0.09669",802.044 ± 0.49 kg/m3
same,mass density,"303.15 K, m1 = 0.1085",804.589 ± 0.48 kg/m3
same,mass density,"303.15 K, m1 = 0.1208",807.179 ± 0.48 kg/m3
same,mass density,"303.15 K, m1 = 0.1447",812.261 ± 0.47 kg/m3
same,mass density,"303.15 K, m1 = 0.1676",817.198 ± 0.47 kg/m3
same,mass density,"303.15 K, m1 = 0.1901",822.114 ± 0.46 kg/m3
same,mass density,"303.15 K, m1 = 0.2123",826.95 ± 0.46 kg/m3
same,mass density,"303.15 K, m1 = 0.2356",832.14 ± 0.45 kg/m3
same,mass density,"308.15 K, m1 = 0.04976",787.453 ± 0.51 kg/m3
same,mass density,"308.15 K, m1 = 0.06138",789.897 ± 0.5 kg/m3
same,mass density,"308.15 K, m1 = 0.07317",792.41 ± 0.5 kg/m3
same,mass density,"308.15 K, m1 = 0.08448",794.767 ± 0.49 kg/m3
same,mass density,"308.15 K, m1 = 0.09669",797.34 ± 0.49 kg/m3
same,mass density,"308.15 K, m1 = 0.1085",799.878 ± 0.49 kg/m3
same,mass density,"308.15 K, m1 = 0.1208",802.481 ± 0.48 kg/m3
same,mass density,"308.15 K, m1 = 0.1447",807.568 ± 0.48 kg/m3
same,mass density,"308.15 K, m1 = 0.1676",812.514 ± 0.47 kg/m3
same,mass density,"308.15 K, m1 = 0.1901",817.44 ± 0.47 kg/m3
same,mass density,"308.15 K, m1 = 0.2123",822.28 ± 0.46 kg/m3
same,mass density,"308.15 K, m1 = 0.2356",827.476 ± 0.46 kg/m3
same,mass density,"313.15 K, m1 = 0.04976",782.702 ± 0.51 kg/m3
same,mass density,"313.15 K, m1 = 0.06138",785.142 ± 0.51 kg/m3
same,mass density,"313.15 K, m1 = 0.07317",787.658 ± 0.51 kg/m3
same,mass density,"313.15 K, m1 = 0.08448",790.033 ± 0.5 kg/m3
same,mass density,"313.15 K, m1 = 0.09669",792.608 ± 0.5 kg/m3
same,mass density,"313.15 K, m1 = 0.1085",795.147 ± 0.5 kg/m3
same,mass density,"313.15 K, m1 = 0.1208",797.759 ± 0.49 kg/m3
same,mass density,"313.15 K, m1 = 0.1447",802.853 ± 0.49 kg/m3
same,mass density,"313.15 K, m1 = 0.1676",807.813 ± 0.48 kg/m3
same,mass density,"313.15 K, m1 = 0.1901",812.739 ± 0.47 kg/m3
same,mass density,"313.15 K, m1 = 0.2123",817.588 ± 0.47 kg/m3
same,mass density,"313.15 K, m1 = 0.2356",822.785 ± 0.46 kg/m3
